Data reported in the supplement of paper PMC10307832.

How the values were obtained:
Assay in all cases: relative viability (nuclei count vs DMSO), 5 days (fraction); higher = more cells survive
NCI-H647 = system: NCI-H647
Outline: (§1)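 Medians of duplicate plates are given as relative viability. That measure is the nuclei count in treated wells divided by the count in vehicle wells. Counts were taken on 4× images of lung cancer cell lines in 1536-well plates, 5 days after pin-tool dosing the day after seeding with one drug alone or a fixed anchor-drug dose plus five library-drug doses (not always all listed) in √10 steps.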

LCLC-103H = system: LCLC-103H
Outline: as §1

NCI-H661 = system: NCI-H661
Outline: as §1

NCI-H1651 = system: NCI-H1651
Outline: as §1

EMC-BAC-2 = system: EMC-BAC-2
Outline: as §1

NCI-H1734 = system: NCI-H1734
Outline: as §1

HCC-78 = system: HCC-78
Outline: as §1

201T = system: 201T
Outline: as §1

EPLC-272H = system: EPLC-272H
Outline: as §1

LOU-NH91 = system: LOU-NH91
Outline: as §1

NCI-H23 = system: NCI-H23
Outline: as §1

SK-LU-1 = system: SK-LU-1
Outline: as §1

NCI-H1437 = system: NCI-H1437
Outline: as §1

NCI-H2023 = system: NCI-H2023
Outline: as §1

ABC-1 = system: ABC-1
Outline: as §1

NCI-H2405 = system: NCI-H2405
Outline: as §1

NCI-H1395 = system: NCI-H1395
Outline: as §1

NCI-H1975 = system: NCI-H1975
Outline: as §1

NCI-H1793 = system: NCI-H1793
Outline: as §1

NCI-H1915 = system: NCI-H1915
Outline: as §1

RERF-LC-KJ = system: RERF-LC-KJ
Outline: as §1

UMC-11 = system: UMC-11
Outline: as §1

NCI-H1792 = system: NCI-H1792
Outline: as §1

For `Cc1cnc(-c2cnc(NCCNc3ccc(C#N)cn3)nc2-c2ccc(Cl)cc2Cl)[nH]1` + COc1cccc2cc(-c3nc([C@H]4CC[C@H](C(=O)O)CC4)n4ncnc(N)c34)[nH]c12 [OSI-027] (partner 0.5 µM), the relative viability (NCI-H647; first compound 0.08 µM) was 0.752, the relative viability (NCI-H647; first compound 0.253 µM) was 0.512 and the relative viability (NCI-H647; first compound 0.8 µM) was 0.725. For the same compound, the relative viability (NCI-H647; first compound 2.53 µM) was 0.55, the relative viability (LCLC-103H; first compound 0.08 µM) was 0.46 and the relative viability (LCLC-103H; first compound 0.253 µM) was 0.413. It also gave a relative viability (LCLC-103H; first compound 0.8 µM) of 0.428, a relative viability (LCLC-103H; first compound 2.53 µM) of 0.473 and a relative viability (NCI-H661; first compound 0.08 µM) of 0.77. It also gave a relative viability (NCI-H661; first compound 0.253 µM) of 0.667, a relative viability (NCI-H661; first compound 0.8 µM) of 0.743 and a relative viability (NCI-H661; first compound 2.53 µM) of 0.802. It also gave a relative viability (NCI-H1651; first compound 0.08 µM) of 0.797, a relative viability (NCI-H1651; first compound 0.253 µM) of 0.589 and a relative viability (NCI-H1651; first compound 0.8 µM) of 0.71. For the same compound, the relative viability (NCI-H1651; first compound 2.53 µM) was 0.801, the relative viability (EMC-BAC-2; first compound 0.08 µM) was 0.407 and the relative viability (EMC-BAC-2; first compound 0.253 µM) was 0.37. It also gave a relative viability (EMC-BAC-2; first compound 0.8 µM) of 0.341, a relative viability (EMC-BAC-2; first compound 2.53 µM) of 0.447 and a relative viability (NCI-H1734; first compound 0.08 µM) of 0.66. For the same compound, the relative viability (NCI-H1734; first compound 0.253 µM) was 0.547, the relative viability (NCI-H1734; first compound 0.8 µM) was 0.597 and the relative viability (NCI-H1734; first compound 2.53 µM) was 0.616. For the same compound, the relative viability (HCC-78; first compound 0.08 µM) was 0.41, the relative viability (HCC-78; first compound 0.253 µM) was 0.391 and the relative viability (HCC-78; first compound 0.8 µM) was 0.366. The relative viability (HCC-78; first compound 2.53 µM) was 0.438, the relative viability (201T; first compound 0.08 µM) was 0.562 and the relative viability (201T; first compound 0.8 µM) was 0.819. It also gave a relative viability (201T; first compound 2.53 µM) of 0.768, a relative viability (EPLC-272H; first compound 0.08 µM) of 0.342 and a relative viability (EPLC-272H; first compound 0.253 µM) of 0.261. For the same compound, the relative viability (EPLC-272H; first compound 0.8 µM) was 0.304, the relative viability (EPLC-272H; first compound 2.53 µM) was 0.317 and the relative viability (LOU-NH91; first compound 0.08 µM) was 0.732. It also gave a relative viability (LOU-NH91; first compound 0.253 µM) of 0.709, a relative viability (LOU-NH91; first compound 0.8 µM) of 0.751 and a relative viability (LOU-NH91; first compound 2.53 µM) of 0.673. The relative viability (NCI-H23; first compound 0.08 µM) was 0.592, the relative viability (NCI-H23; first compound 0.253 µM) was 0.539 and the relative viability (NCI-H23; first compound 0.8 µM) was 0.58. For the same compound, the relative viability (NCI-H23; first compound 2.53 µM) was 0.678, the relative viability (SK-LU-1; first compound 0.08 µM) was 0.344 and the relative viability (SK-LU-1; first compound 0.253 µM) was 0.336. For the same compound, the relative viability (SK-LU-1; first compound 0.8 µM) was 0.35, the relative viability (SK-LU-1; first compound 2.53 µM) was 0.463 and the relative viability (NCI-H1437; first compound 0.08 µM) was 0.896. For the same compound, the relative viability (NCI-H1437; first compound 0.253 µM) was 0.88, the relative viability (NCI-H1437; first compound 0.8 µM) was 0.916 and the relative viability (NCI-H1437; first compound 2.53 µM) was 0.976. It also gave a relative viability (NCI-H2023; first compound 0.08 µM) of 0.565, a relative viability (NCI-H2023; first compound 0.253 µM) of 0.395 and a relative viability (NCI-H2023; first compound 0.8 µM) of 0.431. It also gave a relative viability (NCI-H2023; first compound 2.53 µM) of 0.715, a relative viability (ABC-1; first compound 0.08 µM) of 0.751 and a relative viability (ABC-1; first compound 0.253 µM) of 0.411. For the same compound, the relative viability (ABC-1; first compound 0.8 µM) was 0.553, the relative viability (ABC-1; first compound 2.53 µM) was 0.649 and the relative viability (NCI-H2405; first compound 0.08 µM) was 0.655. For the same compound, the relative viability (NCI-H2405; first compound 0.253 µM) was 0.654, the relative viability (NCI-H2405; first compound 0.8 µM) was 0.654 and the relative viability (NCI-H2405; first compound 2.53 µM) was 0.615. It also gave a relative viability (NCI-H1395; first compound 0.08 µM) of 0.828, a relative viability (NCI-H1395; first compound 0.253 µM) of 0.525 and a relative viability (NCI-H1395; first compound 0.8 µM) of 0.602. It also gave a relative viability (NCI-H1395; first compound 2.53 µM) of 0.67, a relative viability (NCI-H1975; first compound 0.08 µM) of 0.839 and a relative viability (NCI-H1975; first compound 0.253 µM) of 0.647. For the same compound, the relative viability (NCI-H1975; first compound 0.8 µM) was 0.6, the relative viability (NCI-H1975; first compound 2.53 µM) was 0.399 and the relative viability (NCI-H1793; first compound 0.08 µM) was 0.322. The relative viability (NCI-H1793; first compound 0.253 µM) was 0.276, the relative viability (NCI-H1793; first compound 0.8 µM) was 0.191 and the relative viability (NCI-H1793; first compound 2.53 µM) was 0.279. It also gave a relative viability (NCI-H1915; first compound 0.08 µM) of 0.715, a relative viability (NCI-H1915; first compound 0.253 µM) of 0.586 and a relative viability (NCI-H1915; first compound 0.8 µM) of 0.658. For the same compound, the relative viability (NCI-H1915; first compound 2.53 µM) was 0.812, the relative viability (RERF-LC-KJ; first compound 0.08 µM) was 0.672 and the relative viability (RERF-LC-KJ; first compound 0.253 µM) was 0.591. The relative viability (RERF-LC-KJ; first compound 0.8 µM) was 0.454, the relative viability (RERF-LC-KJ; first compound 2.53 µM) was 0.697 and the relative viability (UMC-11; first compound 0.08 µM) was 0.594. The relative viability (UMC-11; first compound 0.253 µM) was 0.477, the relative viability (UMC-11; first compound 0.8 µM) was 0.591 and the relative viability (NCI-H1792; first compound 0.08 µM) was 0.866. It also gave a relative viability (NCI-H1792; first compound 0.253 µM) of 0.715, a relative viability (NCI-H1792; first compound 0.8 µM) of 0.618 and a relative viability (NCI-H1792; first compound 2.53 µM) of 0.666.
